Assay results: article PMC8222254, “Self-assembly of an anion receptor with metal-dependent kinase inhibition and potent in vitro anti-cancer properties” (Nature Communications, 2021)
“And” between values parts separate entries of the source, which are not always exact repeats. Equal values may be shown once. Read-outs that look alike come from different tables or passages of the source.

Experiments:
Experiment in all cases: Chemosensitivity, 96 h continuous exposure, MTT assay
Assay type in all cases: cell-based, human
HCT116 p53+/+ = conditions: for IC50 / Selectivity indices relative to ARPE-19, Ratio + anion:no anion / Selectivity indices relative to MCF10A, Ratio + anion:no anion: HCT116 p53+/+; for Selectivity index (ARPE19): IC50 ARPE-19 / IC50 HCT116 p53+/+; for Selectivity index (MCF10A): IC50 MCF10A / IC50 HCT116 p53+/+; for Relative potency (+ anion to no anion), Ratio + anion:no anion: ratio of IC50, HCT116 p53+/+; for Selectivity indices relative to ARPE-19, Ratio + anion:no anion: ratio of SI (ARPE-19); for Selectivity indices relative to MCF10A, Ratio + anion:no anion: ratio of SI (MCF 10A)
In short: (§1)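 Cells seeded at 2 × 10^3/well (GBM1 3 × 10^3/well) and left overnight at 37 °C, then exposed continuously for 96 h to a range of compound concentrations (final DMSO 0.2%). Viability read by MTT, absorbance at 540 nm; IC50 taken from dose-response curves as concentration reducing cell growth by 50%.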

DLD-1 = conditions: for IC50 / Selectivity indices relative to ARPE-19, Ratio + anion:no anion / Selectivity indices relative to MCF10A, Ratio + anion:no anion: DLD-1; for Selectivity index (ARPE19): IC50 ARPE-19 / IC50 DLD-1; for Selectivity index (MCF10A): IC50 MCF10A / IC50 DLD-1; for Relative potency (+ anion to no anion), Ratio + anion:no anion: ratio of IC50, DLD-1; for Selectivity indices relative to ARPE-19, Ratio + anion:no anion: ratio of SI (ARPE-19); for Selectivity indices relative to MCF10A, Ratio + anion:no anion: ratio of SI (MCF 10A)
In short: as §1

HCT116 p53-/- = conditions: for IC50 / Selectivity indices relative to ARPE-19, Ratio + anion:no anion / Selectivity indices relative to MCF10A, Ratio + anion:no anion: HCT116 p53-/-; for Selectivity index (ARPE19): IC50 ARPE-19 / IC50 HCT116 p53-/-; for Selectivity index (MCF10A): IC50 MCF10A / IC50 HCT116 p53-/-; for Relative potency (+ anion to no anion), Ratio + anion:no anion: ratio of IC50, HCT116 p53-/-; for Selectivity indices relative to ARPE-19, Ratio + anion:no anion: ratio of SI (ARPE-19); for Selectivity indices relative to MCF10A, Ratio + anion:no anion: ratio of SI (MCF 10A)
In short: as §1

A549 = conditions: for IC50 / Selectivity indices relative to ARPE-19, Ratio + anion:no anion / Selectivity indices relative to MCF10A, Ratio + anion:no anion: A549; for Selectivity index (ARPE19): IC50 ARPE-19 / IC50 A549; for Selectivity index (MCF10A): IC50 MCF10A / IC50 A549; for Relative potency (+ anion to no anion), Ratio + anion:no anion: ratio of IC50, A549; for Selectivity indices relative to ARPE-19, Ratio + anion:no anion: ratio of SI (ARPE-19); for Selectivity indices relative to MCF10A, Ratio + anion:no anion: ratio of SI (MCF 10A)
In short: as §1

[1] = mean of replicates, read-out: Mean IC50
[2] = single replicate, read-out: IC50 values for each replicate

SMILES	IC50 (HCT116 p53+/+; [1]) [nM]	IC50 (HCT116 p53+/+; read-out: Mean IC50 values) [nM]	IC50 (HCT116 p53+/+; [2])	Selectivity index (ARPE19) (HCT116 p53+/+)	Selectivity index (MCF10A) (HCT116 p53+/+)	Relative potency (+ anion to no anion), Ratio + anion:no anion (HCT116 p53+/+)	Selectivity indices relative to ARPE-19, Ratio + anion:no anion (HCT116 p53+/+)	Selectivity indices relative to MCF10A, Ratio + anion:no anion (HCT116 p53+/+)	IC50 (DLD-1; [1]) [nM]	IC50 (DLD-1; read-out: Mean IC50 values) [nM]	Selectivity index (ARPE19) (DLD-1)	Selectivity index (MCF10A) (DLD-1)	Relative potency (+ anion to no anion), Ratio + anion:no anion (DLD-1)	Selectivity indices relative to ARPE-19, Ratio + anion:no anion (DLD-1)	Selectivity indices relative to MCF10A, Ratio + anion:no anion (DLD-1)	IC50 (HCT116 p53-/-; read-out: Mean IC50 values) [nM]	IC50 (HCT116 p53-/-; [2])	Selectivity index (ARPE19) (HCT116 p53-/-)	Selectivity index (MCF10A) (HCT116 p53-/-)	Relative potency (+ anion to no anion), Ratio + anion:no anion (HCT116 p53-/-)	further results
CC(=O)[O-].CC(=O)[O-].CC(=O)[O-].O=P([O-])([O-])[O-].[Zn+2].[Zn+2].[Zn+2].c1ccc(-c2csc(NCCN(CCNc3nc(-c4ccccn4)cs3)CCNc3nc(-c4ccccn4)cs3)n2)nc1.c1ccc(-c2csc(NCCN(CCNc3nc(-c4ccccn4)cs3)CCNc3nc(-c4ccccn4)cs3)n2)nc1 [[L2Zn3(PO4)]3+]	218	218	218 nM and 227 nM and 209 nM	600.78	66.16	0.47	1.780	0.191	190	190	689.32	75.91	1.12	0.745	0.080	78	61 nM and 91 nM and 64 nM	1679.10	184.91	1.08	IC50 (DLD-1; [2]): 203 nM and 90 nM and 180 nM and 219 nM and 259 nM; Selectivity indices relative to ARPE-19, Ratio + anion:no anion (HCT116 p53-/-): 0.769; Selectivity indices relative to MCF10A, Ratio + anion:no anion (HCT116 p53-/-): 0.082; IC50 (A549; [1]): 501 nM; IC50 (A549; read-out: Mean IC50 values): 501 nM; IC50 (A549; [2]): 234 nM and 734 nM and 617 nM and 417 nM; Selectivity index (ARPE19) (A549): 261.42; Selectivity index (MCF10A) (A549): 28.79; Relative potency (+ anion to no anion), Ratio + anion:no anion (A549): 1.24; Selectivity indices relative to ARPE-19, Ratio + anion:no anion (A549): 0.670; Selectivity indices relative to MCF10A, Ratio + anion:no anion (A549): 0.072
O=P(O)(O)Oc1ccccc1.[Zn+2].[Zn+2].[Zn+2].c1ccc(-c2csc(NCCN(CCNc3nc(-c4ccccn4)cs3)CCNc3nc(-c4ccccn4)cs3)n2)nc1.c1ccc(-c2csc(NCCN(CCNc3nc(-c4ccccn4)cs3)CCNc3nc(-c4ccccn4)cs3)n2)nc1 [[L2Zn3(O3POPh)]4+]	64	64	58 nM and 64 nM and 70 nM	3597.66	818.02	0.14	10.661	2.358	230	230	1001.09	227.62	1.35	1.082	0.239	85	155 nM and 65 nM and 36 nM	2708.82	615.92	1.18	IC50 (HCT116 p53-/-; [1]): 85 nM; Selectivity indices relative to ARPE-19, Ratio + anion:no anion (HCT116 p53-/-): 1.240; Selectivity indices relative to MCF10A, Ratio + anion:no anion (HCT116 p53-/-): 0.274; IC50 (A549; [1]): 739 nM; IC50 (A549; read-out: Mean IC50 values): 739 nM; IC50 (A549; [2]): 651 nM and 791 nM and 774 nM; Selectivity index (ARPE19) (A549): 311.57; Selectivity index (MCF10A) (A549): 70.84; Relative potency (+ anion to no anion), Ratio + anion:no anion (A549): 1.83; Selectivity indices relative to ARPE-19, Ratio + anion:no anion (A549): 0.798; Selectivity indices relative to MCF10A, Ratio + anion:no anion (A549): 0.177
O=P([O-])([O-])Oc1ccccc1.[Cu+2].[Cu+2].[Cu+2].c1ccc(-c2csc(NCCN(CCNc3nc(-c4ccccn4)cs3)CCNc3nc(-c4ccccn4)cs3)n2)nc1.c1ccc(-c2csc(NCCN(CCNc3nc(-c4ccccn4)cs3)CCNc3nc(-c4ccccn4)cs3)n2)nc1 [[L2Cu3(O3POPh)]4+]	167	167	170 nM and 167 nM and 189 nM and 142 nM	690.06	308.25	0.34	6.503	3.168	392	392	293.98	131.32	2.97	0.737	0.359	82	80 nM and 86 nM	1405.37	627.77	0.60	IC50 (HCT116 p53-/-; [1]): 82 nM; Selectivity indices relative to ARPE-19, Ratio + anion:no anion (HCT116 p53-/-): 3.658; Selectivity indices relative to MCF10A, Ratio + anion:no anion (HCT116 p53-/-): 1.782; IC50 (A549; [1]): 1710 nM; IC50 (A549; read-out: Mean IC50 values): 1710 nM; IC50 (A549; [2]): 1800 nM and 1600 nM and 1720 nM; Selectivity index (ARPE19) (A549): 67.55; Selectivity index (MCF10A) (A549): 30.17; Relative potency (+ anion to no anion), Ratio + anion:no anion (A549): 7.32; Selectivity indices relative to ARPE-19, Ratio + anion:no anion (A549): 0.299; Selectivity indices relative to MCF10A, Ratio + anion:no anion (A549): 0.146
O=S(=O)([O-])[O-].[Cu+2].[Cu+2].[Cu+2].c1ccc(-c2csc(NCCN(CCNc3nc(-c4ccccn4)cs3)CCNc3nc(-c4ccccn4)cs3)n2)nc1.c1ccc(-c2csc(NCCN(CCNc3nc(-c4ccccn4)cs3)CCNc3nc(-c4ccccn4)cs3)n2)nc1 [[L2Cu3(SO4)]4+]	668	668	643 nM and 713 nM and 647 nM	180.10	74.45	1.35	1.697	0.765	650	650	185.09	76.51	4.92	0.464	0.209	78	78 nM and 77 nM and 79 nM	1542.44	637.59	0.57	Selectivity indices relative to ARPE-19, Ratio + anion:no anion (HCT116 p53-/-): 4.015; Selectivity indices relative to MCF10A, Ratio + anion:no anion (HCT116 p53-/-): 1.810; IC50 (A549; [1]): 680 nM; IC50 (A549; read-out: Mean IC50 values): 680 nM; IC50 (A549; [2]): 747 nM and 620 nM and 667 nM and 685 nM; Selectivity index (ARPE19) (A549): 176.93; Selectivity index (MCF10A) (A549): 73.14; Relative potency (+ anion to no anion), Ratio + anion:no anion (A549): 2.92; Selectivity indices relative to ARPE-19, Ratio + anion:no anion (A549): 0.783; Selectivity indices relative to MCF10A, Ratio + anion:no anion (A549): 0.353
